How the values were obtained:
[1] = target: T1, recombinant purified human BTK (Homo sapiens, UniProt Q06187); experiment: In vitro BTK kinase assay on ADP Glo platform; assay type: biochemical; details: 2 hr room temperature, read-out: In-vitro BTK inhibitory activity: IC50
T1 construct: purchased SignalChem, USA
Procedure: Testing of Compounds of the Invention Biological Studies: In vitro BTK Inhibitory Activity Assay:
In vitro BTK inhibitory activity of test compounds were screened using BTK kinase assay on ADP Glo platform (Li, H., Totoritis, R. D., Lor, L. A., Schwartz, B., Caprioli, P., Jurewicz, A. J and Zhang, G., Assay Drug Dev. Technol., 2009, 7(6), 598-605). Briefly, fixed amount of recombinant purified human BTK (3 ng/reaction from SignalChem, USA) were incubated with increasing concentration of test compounds, in 1× kinase reaction buffer (40 mM Tris-Cl, pH7.5, 20 mM MgCl2, 2 mM MnCl2, 0.1 mg/ml BSA and 50 μM DTT). Enzymatic reaction was initiated by adding a substrate cocktail containing 50 µM of ATP (final concentration) and […] of polyGln4Tyr1 (Signal Chem) in total 25 μl of reaction, in round bottom white 96 well plate. The reaction mixture was incubated at room temperature for 2 hr. After 2 hr of incubation, 10 μl of the reaction mix was mixed with […] of ADP Glo reagent, in another round bottom white 96 well plate and incubated at room temperature for 40 min. This was followed by addition of kinase detection reagent (20 μl per reaction) and incubation at room temperature for 30 min. Finally, plate was read for luminescence at an integration time of 500 millisecond per well. Data were plotted taking Enzyme with no inhibitor set as the 100% kinase activity and for dose response curve, % Kinase activity was plotted against conc on Log scale and IC50 was determined by non linear curve fitting method using GraphPad Prism software 6. The in vitro BTK inhibitory activity (IC50) for representative compounds are listed in […]

CYP 1A2 = target: T2, CYP 1A2 (Homo sapiens, UniProt P05177); experiment: CYP inhibition in human liver microsomes, 1A2; assay type: in vitro ADME; details: pH 7.4, @ 10 μM concn
T2 construct: from tissue; host or cells: human liver microsomes
T2 sequence (P05177 1-516): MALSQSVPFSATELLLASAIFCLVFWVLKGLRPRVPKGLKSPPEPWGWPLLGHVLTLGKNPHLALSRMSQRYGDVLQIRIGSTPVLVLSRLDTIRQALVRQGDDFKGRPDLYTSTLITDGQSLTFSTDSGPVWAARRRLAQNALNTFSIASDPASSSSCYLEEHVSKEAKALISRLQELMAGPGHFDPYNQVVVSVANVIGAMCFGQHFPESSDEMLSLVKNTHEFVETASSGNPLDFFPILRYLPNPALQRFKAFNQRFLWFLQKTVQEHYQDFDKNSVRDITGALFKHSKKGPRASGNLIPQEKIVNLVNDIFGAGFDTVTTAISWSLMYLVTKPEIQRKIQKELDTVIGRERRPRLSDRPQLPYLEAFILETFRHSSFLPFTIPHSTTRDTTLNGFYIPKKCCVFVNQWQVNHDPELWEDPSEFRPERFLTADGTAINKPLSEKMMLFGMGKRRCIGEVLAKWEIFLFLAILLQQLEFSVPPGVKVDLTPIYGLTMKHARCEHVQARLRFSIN
Procedure: (§1) CYP Inhibition Studies: CYP inhibition studies were performed with test compounds, at two concentrations ([…] and 10 μM), using human liver microsomes (Yao, M., Zhu, M., Sinz, M. W., Zhang, H., Humphreys, W. F., Rodrigues, A. D and Dai, R., Journal of Pharmaceutical and Biomedical Analysis, 2007, 44, 211-223; Walsky, R. L and Obach, R. S., Drug Metab. Dispos., 2004, 32, 647-660). Human liver microsomes were mixed with 100 mM phosphate buffer (pH 7.4) and probe substrate and warmed to […] in microcentrifuge tubes. Aliquots of this mixture (499 μL) were transferred to each pre-labeled microcentrifuge tubes, followed by addition of the 1 μL of inhibitors (test compound/CYP-specific positive control inhibitor) or control solvent (DMSO). Aliquots of this mixture (90 μL) were transferred to each pre-labeled microcentrifuge tubes in duplicate. Final solvent concentrations were 0.2% (v/v) or less. Incubations were commenced with the addition of 10 μL NADPH stock (assay concentration, 1 mM) to a final incubation volume of 100 μL and incubated in shaking water bath (at 37° C. and 100 rpm), for the period defined in Tables 1. Incubations were terminated by addition of 400 μL of termination solvent (CH3CN) containing internal standard. The terminated samples were vortex-mixed, centrifuged at 10000 rpm for 5 min and supernatant transferred into HPLC vials for LC-MS/MS analysis to monitor metabolites produced by marker CYP reactions. […] Animals

CYP 2C8 = target: T3, CYP 2C8 (Homo sapiens, UniProt P10632); experiment: CYP inhibition in human liver microsomes, 2C8; assay type: in vitro ADME; details: pH 7.4, @ 10 μM concn
T3 construct: from tissue; host or cells: human liver microsomes
T3 sequence (P10632 1-490): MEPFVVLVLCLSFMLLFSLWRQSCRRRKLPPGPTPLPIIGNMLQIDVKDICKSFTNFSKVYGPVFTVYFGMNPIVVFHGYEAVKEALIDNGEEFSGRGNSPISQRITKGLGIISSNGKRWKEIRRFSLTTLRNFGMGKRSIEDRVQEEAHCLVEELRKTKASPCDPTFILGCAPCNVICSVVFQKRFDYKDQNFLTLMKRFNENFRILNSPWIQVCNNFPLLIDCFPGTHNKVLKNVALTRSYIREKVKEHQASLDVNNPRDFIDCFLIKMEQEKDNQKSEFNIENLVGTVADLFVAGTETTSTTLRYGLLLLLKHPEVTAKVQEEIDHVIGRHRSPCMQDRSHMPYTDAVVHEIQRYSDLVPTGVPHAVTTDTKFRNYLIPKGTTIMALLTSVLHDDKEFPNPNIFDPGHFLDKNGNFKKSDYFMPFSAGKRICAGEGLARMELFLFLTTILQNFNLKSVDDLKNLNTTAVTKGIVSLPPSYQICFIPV
Procedure: as §1

CYP 2C9 = target: T4, CYP 2C9 (Homo sapiens, UniProt P11712); experiment: CYP inhibition in human liver microsomes, 2C9; assay type: in vitro ADME; details: pH 7.4, @ 10 μM concn
T4 construct: from tissue; host or cells: human liver microsomes
T4 sequence (P11712 whole entry): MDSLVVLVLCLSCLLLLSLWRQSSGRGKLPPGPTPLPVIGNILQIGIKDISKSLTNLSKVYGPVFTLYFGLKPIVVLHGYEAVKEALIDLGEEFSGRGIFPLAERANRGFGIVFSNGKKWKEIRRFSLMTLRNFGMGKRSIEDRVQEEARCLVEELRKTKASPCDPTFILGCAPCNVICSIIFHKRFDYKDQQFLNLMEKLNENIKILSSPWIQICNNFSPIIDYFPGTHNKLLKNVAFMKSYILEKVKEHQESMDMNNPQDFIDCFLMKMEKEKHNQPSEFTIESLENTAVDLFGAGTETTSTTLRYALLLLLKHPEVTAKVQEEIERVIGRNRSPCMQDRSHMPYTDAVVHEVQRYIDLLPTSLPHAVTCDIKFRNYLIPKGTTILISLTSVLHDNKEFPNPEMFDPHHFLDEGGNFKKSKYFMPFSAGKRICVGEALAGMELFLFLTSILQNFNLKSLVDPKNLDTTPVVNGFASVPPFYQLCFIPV
Procedure: as §1

CYP 2C19 = target: T5, CYP 2C19 (Homo sapiens, UniProt P33261); experiment: CYP inhibition in human liver microsomes, 2C19; assay type: in vitro ADME; details: pH 7.4, @ 10 μM concn
T5 construct: from tissue; host or cells: human liver microsomes
T5 sequence (P33261 whole entry): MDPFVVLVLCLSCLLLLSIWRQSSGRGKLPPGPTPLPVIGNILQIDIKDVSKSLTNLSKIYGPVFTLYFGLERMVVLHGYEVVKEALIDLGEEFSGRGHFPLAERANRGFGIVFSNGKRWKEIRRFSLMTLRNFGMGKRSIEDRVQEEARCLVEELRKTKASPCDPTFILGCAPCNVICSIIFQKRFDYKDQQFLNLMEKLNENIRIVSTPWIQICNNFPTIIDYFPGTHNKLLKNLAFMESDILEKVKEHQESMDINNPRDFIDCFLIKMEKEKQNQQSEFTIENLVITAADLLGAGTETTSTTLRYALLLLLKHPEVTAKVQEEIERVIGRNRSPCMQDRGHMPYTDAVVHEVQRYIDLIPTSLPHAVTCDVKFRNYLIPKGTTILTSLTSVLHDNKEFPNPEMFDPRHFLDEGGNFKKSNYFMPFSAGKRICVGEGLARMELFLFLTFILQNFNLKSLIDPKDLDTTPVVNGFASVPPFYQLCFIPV
Procedure: as §1

CYP 2D6 = target: T6, CYP 2D6 (Homo sapiens, UniProt P10635); experiment: CYP inhibition in human liver microsomes, 2D6; assay type: in vitro ADME; details: pH 7.4, @ 10 μM concn
T6 construct: from tissue; host or cells: human liver microsomes
T6 sequence (P10635 whole entry): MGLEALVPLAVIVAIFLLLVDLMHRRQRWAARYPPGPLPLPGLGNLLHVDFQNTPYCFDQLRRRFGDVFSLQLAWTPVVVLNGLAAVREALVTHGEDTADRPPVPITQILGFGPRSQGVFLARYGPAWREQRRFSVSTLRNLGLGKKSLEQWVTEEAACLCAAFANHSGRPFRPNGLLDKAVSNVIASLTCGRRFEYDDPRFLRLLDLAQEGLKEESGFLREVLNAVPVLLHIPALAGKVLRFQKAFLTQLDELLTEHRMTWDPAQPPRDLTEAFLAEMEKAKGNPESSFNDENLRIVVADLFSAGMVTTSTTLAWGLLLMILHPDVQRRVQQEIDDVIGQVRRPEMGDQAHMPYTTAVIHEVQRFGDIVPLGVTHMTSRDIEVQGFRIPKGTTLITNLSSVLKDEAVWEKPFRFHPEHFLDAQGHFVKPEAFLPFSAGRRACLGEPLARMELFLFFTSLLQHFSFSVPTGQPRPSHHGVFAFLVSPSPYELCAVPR
Procedure: as §1

CYP 3A4 = target: T7, CYP 3A4 (Homo sapiens, UniProt P08684); experiment: CYP inhibition in human liver microsomes, 3A4; assay type: in vitro ADME; details: pH 7.4, @ 10 μM concn
T7 construct: from tissue; host or cells: human liver microsomes
T7 sequence (P08684 whole entry): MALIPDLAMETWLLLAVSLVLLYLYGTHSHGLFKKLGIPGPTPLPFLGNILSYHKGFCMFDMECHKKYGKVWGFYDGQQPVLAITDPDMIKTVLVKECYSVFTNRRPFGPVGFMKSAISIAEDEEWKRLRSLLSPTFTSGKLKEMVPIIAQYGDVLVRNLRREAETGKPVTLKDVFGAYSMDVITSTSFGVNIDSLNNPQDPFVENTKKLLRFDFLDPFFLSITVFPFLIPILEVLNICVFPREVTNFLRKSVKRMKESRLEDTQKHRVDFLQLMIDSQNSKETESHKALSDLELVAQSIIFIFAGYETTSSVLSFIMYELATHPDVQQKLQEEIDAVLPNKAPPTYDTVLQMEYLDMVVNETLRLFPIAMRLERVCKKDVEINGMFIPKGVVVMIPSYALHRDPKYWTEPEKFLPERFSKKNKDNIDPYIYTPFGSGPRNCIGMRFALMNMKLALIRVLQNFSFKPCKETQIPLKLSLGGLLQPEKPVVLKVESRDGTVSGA
Procedure: as §1

T1 sequence (Q06187 whole entry): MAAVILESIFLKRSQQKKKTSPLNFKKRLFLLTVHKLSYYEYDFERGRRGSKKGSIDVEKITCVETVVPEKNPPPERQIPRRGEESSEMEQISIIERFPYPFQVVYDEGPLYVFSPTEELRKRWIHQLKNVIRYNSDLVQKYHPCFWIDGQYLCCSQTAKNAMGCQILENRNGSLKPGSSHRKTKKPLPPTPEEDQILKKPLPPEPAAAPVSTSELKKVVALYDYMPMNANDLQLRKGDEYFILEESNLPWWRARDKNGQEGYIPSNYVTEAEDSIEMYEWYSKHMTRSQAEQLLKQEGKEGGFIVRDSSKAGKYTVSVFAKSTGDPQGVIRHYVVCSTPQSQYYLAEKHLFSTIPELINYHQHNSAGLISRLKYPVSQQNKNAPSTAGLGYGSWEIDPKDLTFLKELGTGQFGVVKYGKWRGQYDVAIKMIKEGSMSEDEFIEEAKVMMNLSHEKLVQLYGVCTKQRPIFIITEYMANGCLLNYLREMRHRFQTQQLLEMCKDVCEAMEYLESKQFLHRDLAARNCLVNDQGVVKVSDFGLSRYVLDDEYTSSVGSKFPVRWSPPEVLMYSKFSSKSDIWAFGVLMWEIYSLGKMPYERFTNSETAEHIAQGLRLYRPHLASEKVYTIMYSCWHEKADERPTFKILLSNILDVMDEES

Structure (SMILES)	IC50 [1] [nM]	inhibition at 10 μM (CYP 1A2) [%]	inhibition at 10 μM (CYP 2C8) [%]	inhibition at 10 μM (CYP 2C9) [%]	inhibition at 10 μM (CYP 2C19) [%]	inhibition at 10 μM (CYP 2D6) [%]	inhibition at 10 μM (CYP 3A4) [%]
CN(C)C/C=C/C(=O)N1CC2CC(n3nc(-c4ccc(Oc5ccccc5)cc4)c4c(N)ncnc43)CC2C1 (centres unmarked) [Compound 24, (E)-1-(5-(4-amino-3-(4-phenoxyphenyl)-1H-pyrazolo[3,4-d]pyrimidin-1-yl)hexahydrocyclopenta[c]pyrrol-2(1H)-yl)-4-(dimethylamino)but-2-en-1-one]	2.5	< 50	< 50	< 50	< 50	< 50	< 50
C=CC(=O)N1CC2CC(n3cc(-c4ccc(Oc5ccccc5)cc4)c4c(N)ncnc43)CC2C1 (centres unmarked) [Compound 31, 1-(5-(4-amino-5-(4-phenoxyphenyl)-7H-pyrrolo[2,3-d]pyrimidin-7-yl)hexahydrocyclopenta[c]pyrrol-2(1H)-yl)prop-2-en-1-one]	0.6	< 50	< 50	< 50	< 50	< 50	< 50
C=CC(=O)N1CC2CC(n3nc(-c4ccc5nc(-c6ccccc6)oc5c4)c4c(N)ncnc43)CC2C1 (centres unmarked) [Compound 19, 1-(5-(4-amino-3-(2-phenylbenzo[d]oxazol-6-yl)-1H-pyrazolo[3,4-d]pyrimidin-1-yl)hexahydrocyclopenta[c]pyrrol-2(1H)-yl)prop-2-en-1-one]	4	< 50	< 50	< 50	< 50	< 50	< 50
C=CC(=O)N1CC2CC(n3nc(-c4ccc(Oc5ccccc5)cc4)c4c(N)ncnc43)CC2C1 (centres unmarked) [Compound 1, 1-(5-(4-amino-3-(4-phenoxyphenyl)-1H-pyrazolo[3,4-d]pyrimidin-1-yl)hexahydrocyclopenta[c]pyrrol-2(1H)-yl)prop-2-en-1-one]	1.3	< 50	< 50	< 50	< 50	< 50	< 50
C=CC(=O)N1CC2CC(n3nc(-c4ccc(Oc5ccccc5)c(OC)c4)c4c(N)ncnc43)CC2C1 (centres unmarked) [Compound 12, 1-(5-(4-amino-3-(3-methoxy-4-phenoxyphenyl)-1H-pyrazolo[3,4-d]pyrimidin-1-yl)hexahydrocyclopenta[c]pyrrol-2(1H)-yl)prop-2-en-1-one]	37	< 50	> 50	> 50	< 50	< 50	> 50
CN(C)C/C=C/C(=O)N1CC2CC(n3nc(-c4ccc(Oc5ccccc5)cc4)c4c(N)ncnc43)CC2C1 (centres unmarked) [Compound 48, (E)-1-(5-(4-amino-3-(4-phenoxyphenyl)-1H-pyrazolo[3,4-d]pyrimidin-1-yl)hexahydrocyclopenta[c]pyrrol-2(1H)-yl)-4-(dimethylamino)but-2-en-1-one]	50	–	–	–	–	–	–

Continued, values first:

IC50 [1] [nM]	inhibition at 10 μM (CYP 1A2) [%]	inhibition at 10 μM (CYP 2C8) [%]	inhibition at 10 μM (CYP 2C9) [%]	inhibition at 10 μM (CYP 2C19) [%]	inhibition at 10 μM (CYP 2D6) [%]	inhibition at 10 μM (CYP 3A4) [%]	Structure (SMILES)
10	< 50	< 50	< 50	< 50	< 50	> 50	CN(C)C/C=C/C(=O)N1CC2CC(n3nc(-c4ccc(Oc5cccnc5)cc4)c4c(N)ncnc43)CC2C1 (centres unmarked) [Compound 53, (E)-1-(5-(4-amino-3-(4-(pyridin-3-yloxy)phenyl)-1H-pyrazolo[3,4-d]pyrimidin-1-yl)hexahydrocyclopenta[c]pyrrol-2(1H)-yl)-4-(dimethylamino)but-2-en-1-one]
2	< 50	< 50	< 50	< 50	< 50	< 50	C=CC(=O)N1CC2CN(CCn3nc(-c4ccc(Oc5ccccc5)cc4)c4c(N)ncnc43)CC2C1 (centres unmarked) [Compound 4, 1-(5-(2-(4-amino-3-(4-phenoxyphenyl)-1H-pyrazolo[3,4-d]pyrimidin-1-yl)ethyl)hexahydropyrrolo[3,4-c]pyrrol-2(1H)-yl)prop-2-en-1-one]
1.6	< 50	< 50	< 50	< 50	< 50	< 50	C=CC(=O)N1CC2CC(n3c(Br)c(-c4ccc(Oc5ccccc5)cc4)c4c(N)ncnc43)CC2C1 (centres unmarked) [Compound 27, 1-(5-(4-amino-6-bromo-5-(4-phenoxyphenyl)-7H-pyrrolo[2,3-d]pyrimidin-7-yl)hexahydrocyclopenta[c]pyrrol-2(1H)-yl)prop-2-en-1-one]
100	< 50	> 50	> 50	< 50	< 50	> 50	CN(C)C/C=C/C(=O)N1CC2CC(n3nc(-c4ccc(-c5nnc(-c6ccccn6)o5)cc4)c4c(N)ncnc43)CC2C1 (centres unmarked) [Compound 57, (E)-1-(5-(4-amino-3-(4-(5-(pyridin-2-yl)-1,3,4-oxadiazol-2-yl)phenyl)-1H-pyrazolo[3,4-d]pyrimidin-1-yl)hexahydrocyclopenta[c]pyrrol-2(1H)-yl)-4-(dimethylamino)but-2-en-1-one]
1.1	< 50	< 50	< 50	< 50	< 50	< 50	C=CC(=O)N1CC2CC(n3nc(-c4ccc5c(c4)OC(F)(F)O5)c4c(N)ncnc43)CC2C1 (centres unmarked) [Compound 36, 1-(5-(4-amino-3-(2,2-difluorobenzo[d] [1,3]dioxol-5-yl)-1H-pyrazolo [3,4-d]pyrimidin-1-yl)hexahydrocyclopenta[c]pyrrol-2(1H)-yl)prop-2-en-1-one]

From patent publication US9840509B2, “Heterocyclic compounds” (CADILA HEALTHCARE LIMITED, priority 2014, dated 2017)
